Activity calls are given as the source filed them. The calls are words filed in the database; no cut-off is given here.
Key:
[1] = test system: Plasmodium yoelii nigeriensis; assay: Antimalarial activity against chloroquine-, mefloquine-, halofantrine-resistant Plasmodium yoelii nigeriensis blood stream schizonts infected in Swiss mouse assessed as suppression of parasitemia at 48 mg/kg, im administered once daily for 4 days relative to control; assay type: functional; conditions: route intramuscular
[2] = test system: Plasmodium yoelii nigeriensis; assay: Antimalarial activity against chloroquine-, mefloquine-, halofantrine-resistant Plasmodium yoelii nigeriensis blood stream schizonts infected in Swiss mouse assessed as suppression of parasitemia at 24 mg/kg, im administered once daily for 4 days relative to control; assay type: functional; conditions: route intramuscular
[3] = test system: Plasmodium yoelii nigeriensis; assay: Antimalarial activity against chloroquine-, mefloquine-, halofantrine-resistant Plasmodium yoelii nigeriensis blood stream schizonts infected in Swiss mouse assessed as suppression of parasitemia at 12 mg/kg, im administered once daily for 4 days relative to control; assay type: functional; conditions: route intramuscular
[4] = test system: Plasmodium yoelii nigeriensis; assay: Antimalarial activity against chloroquine-, mefloquine-, halofantrine-resistant Plasmodium yoelii nigeriensis blood stream schizonts infected in Swiss mouse assessed as disease cured mouse at 24 mg/kg, im administered once daily for 4 days measured on day 28; assay type: functional, organism-based; set-up: dose 24 mg/kg
[5] = test system: Plasmodium yoelii nigeriensis; assay: Antimalarial activity against chloroquine-, mefloquine-, halofantrine-resistant Plasmodium yoelii nigeriensis blood stream schizonts infected in Swiss mouse assessed as disease cured mouse at 12 mg/kg, im administered once daily for 4 days measured on day 28; assay type: functional, organism-based; set-up: dose 12 mg/kg
[6] = Lipophilicity, log P of the compound; assay type: physicochemical; conditions: octanol/water
[7] = test system: Plasmodium yoelii nigeriensis; assay: Antimalarial activity against chloroquine-, mefloquine-, halofantrine-resistant Plasmodium yoelii nigeriensis blood stream schizonts infected in Swiss mouse assessed as suppression of parasitemia at 6 mg/kg, im administered once daily for 4 days relative to control; assay type: functional; conditions: route intramuscular
[8] = test system: Plasmodium yoelii nigeriensis; assay: Antimalarial activity against chloroquine-, mefloquine-, halofantrine-resistant Plasmodium yoelii nigeriensis blood stream schizonts infected in Swiss mouse assessed as suppression of parasitemia at 3 mg/kg, im administered once daily for 4 days relative to control; assay type: functional; conditions: route intramuscular
[9] = test system: Plasmodium yoelii nigeriensis; assay: Antimalarial activity against chloroquine-, mefloquine-, halofantrine-resistant Plasmodium yoelii nigeriensis blood stream schizonts infected in Swiss mouse assessed as disease cured mouse at 48 mg/kg, im administered once daily for 4 days measured on day 28; assay type: functional, organism-based; set-up: dose 48 mg/kg
[10] = test system: Plasmodium yoelii nigeriensis; assay: Antimalarial activity against chloroquine-, mefloquine-, halofantrine-resistant Plasmodium yoelii nigeriensis blood stream schizonts infected in Swiss mouse assessed as disease cured mouse at 3 mg/kg, im administered once daily for 4 days measured on day 28; assay type: functional, organism-based; set-up: dose 3 mg/kg
[11] = test system: Plasmodium yoelii nigeriensis; assay: Antimalarial activity against chloroquine-, mefloquine-, halofantrine-resistant Plasmodium yoelii nigeriensis blood stream schizonts infected in Swiss mouse assessed as disease cured mouse at 6 mg/kg, im administered once daily for 4 days measured on day 28; assay type: functional, organism-based; set-up: dose 6 mg/kg
[12] = Drug degradation in aqueous NaHCO3 under ambient temperature within 48 hrs; assay type: physicochemical; conditions: buffer
[13] = Drug degradation in aqueous Na2CO3 under ambient temperature within 48 hrs; assay type: physicochemical; conditions: buffer
[14] = test system: Plasmodium yoelii nigeriensis; assay: Antimalarial activity against chloroquine-, mefloquine-, halofantrine-resistant Plasmodium yoelii nigeriensis infected in Swiss mouse assessed as protection from infection at 3 to 48 mg/kg, im administered once daily for 4 days measured on day 28 relative to artesunic acid; assay type: functional; conditions: dose mg/kg 3-48; route intramuscular

| Structure (SMILES) | Activity [1] | Activity [2] | Activity [3] | Activity [4] | Activity [5] | logP [6] | Activity [7] | Activity [8] | Activity [9] | Activity [10] | Activity [11] | Drug degradation [12] | Drug degradation [13] | fold change (FC) [14] |
| --- | --- | --- | --- | --- | --- | --- | --- | --- | --- | --- | --- | --- | --- | --- |
| C[C@H]1[C@@H](OCCOCCOCCOCCO)O[C@@H]2O[C@@]3(C)CC[C@H]4[C@H](C)CC[C@@H]1[C@@]24OO3 | 100% | 100% | 100% | inactive | inactive | 2.52 | – | – | – | – | – | – | – | – |
| C[C@H]1[C@@H](OCCCCCCO)O[C@@H]2O[C@@]3(C)CC[C@H]4[C@H](C)CC[C@@H]1[C@@]24OO3 | 100% | 100% | 100% | Active | Active | 4.38 | 100% | 100% | Active | inactive | – | – | – | – |
| C[C@H]1[C@@H](OCCCO)O[C@@H]2O[C@@]3(C)CC[C@H]4[C@H](C)CC[C@@H]1[C@@]24OO3 | 100% | 100% | 100% | Active | – | 3.1 | 100% | 98.3% | Active | inactive | – | – | – | – |
| C[C@H]1[C@@H](OCCCCCCCCCCO)O[C@@H]2O[C@@]3(C)CC[C@H]4[C@H](C)CC[C@@H]1[C@@]24OO3 | 100% | 100% | 100% | – | inactive | 6.05 | 100% | – | Active | – | inactive | – | – | – |
| C[C@H]1[C@@H](OCCOCCOCCOC(=O)CCC(=O)O)O[C@@H]2O[C@@]3(C)CC[C@H]4[C@H](C)CC[C@@H]1[C@@]24OO3 | 92% | – | – | – | – | 2.54 | – | – | – | – | – | – | – | – |
| C[C@H]1[C@@H](OCCCCCO)O[C@@H]2O[C@@]3(C)CC[C@H]4[C@H](C)CC[C@@H]1[C@@]24OO3 | 100% | 100% | 100% | Active | Active | 3.97 | 100% | – | Active | – | – | – | – | – |
| C[C@H]1[C@@H](OCCOCCOC(=O)CCC(=O)O)O[C@@H]2O[C@@]3(C)CC[C@H]4[C@H](C)CC[C@@H]1[C@@]24OO3 | 100% | – | – | – | – | 2.73 | – | – | – | – | – | – | – | – |
| C[C@H]1[C@@H](OCCCCCCCCCCOC(=O)CCC(=O)O)O[C@@H]2O[C@@]3(C)CC[C@H]4[C@H](C)CC[C@@H]1[C@@]24OO3 | 100% | 100% | 98.18% | – | inactive | 5.95 | – | – | Active | – | – | Not Active | Not Active | – |
| C[C@H]1[C@@H](OCCCCCCCCCCCCOC(=O)CCC(=O)O)O[C@@H]2O[C@@]3(C)CC[C@H]4[C@H](C)CC[C@@H]1[C@@]24OO3 | 100% | 100% | 71.27% | Active | inactive | 6.78 | 57.09% | – | Active | – | inactive | – | – | 2 |
| CCO[C@H]1O[C@@H]2O[C@@]3(C)CC[C@H]4[C@H](C)CC[C@@H]([C@H]1C)[C@@]24OO3 [ARTEMOTIL] | – | – | – | – | – | – | 100% | 100% | – | inactive | Active | – | – | – |
| C[C@H]1[C@@H](OCCCCCCCCOC(=O)CCC(=O)O)O[C@@H]2O[C@@]3(C)CC[C@H]4[C@H](C)CC[C@@H]1[C@@]24OO3 | 100% | 100% | 100% | Active | inactive | 5.12 | – | – | Active | – | – | – | – | 2 |
| C[C@H]1[C@@H](OCCOCCOCCO)O[C@@H]2O[C@@]3(C)CC[C@H]4[C@H](C)CC[C@@H]1[C@@]24OO3 | 100% | 100% | 100% | inactive | inactive | 2.68 | – | – | – | – | – | – | – | – |
| C[C@H]1[C@@H](OCCCCCOC(=O)CCC(=O)O)O[C@@H]2O[C@@]3(C)CC[C@H]4[C@H](C)CC[C@@H]1[C@@]24OO3 | 94.91% | 92.73% | – | inactive | – | 3.86 | – | – | inactive | – | – | – | – | – |
| C[C@H]1[C@H](OC(=O)CCC(=O)O)O[C@@H]2O[C@@]3(C)CC[C@H]4[C@H](C)CC[C@@H]1[C@@]24OO3 [ARTESUNATE] | 100% | 100% | 96.36% | inactive | inactive | – | – | – | Active | – | – | Active | Active | – |
| C[C@H]1[C@@H](OCCOC(=O)CCC(=O)O)O[C@@H]2O[C@@]3(C)CC[C@H]4[C@H](C)CC[C@@H]1[C@@]24OO3 | 100% | – | – | – | – | 2.89 | – | – | inactive | – | – | – | – | – |
| C[C@H]1[C@@H](OCCOCCOCCOCCOC(=O)CCC(=O)O)O[C@@H]2O[C@@]3(C)CC[C@H]4[C@H](C)CC[C@@H]1[C@@]24OO3 | 97% | – | – | – | – | 2.42 | – | – | inactive | – | – | – | – | – |
| C[C@H]1[C@@H](OCCCCCCOC(=O)CCC(=O)O)O[C@@H]2O[C@@]3(C)CC[C@H]4[C@H](C)CC[C@@H]1[C@@]24OO3 | 98.55% | – | – | – | – | 4.28 | – | – | inactive | – | – | – | – | – |
| C[C@H]1[C@@H](OCCOCCO)O[C@@H]2O[C@@]3(C)CC[C@H]4[C@H](C)CC[C@@H]1[C@@]24OO3 | 100% | 100% | 100% | Active | – | 2.83 | 100% | – | Active | – | inactive | – | – | – |
| C[C@H]1[C@@H](OCCCOC(=O)CCC(=O)O)O[C@@H]2O[C@@]3(C)CC[C@H]4[C@H](C)CC[C@@H]1[C@@]24OO3 | 100% | – | – | – | – | 2.99 | – | – | inactive | – | – | – | – | – |
| C[C@H]1[C@@H](OCCO)O[C@@H]2O[C@@]3(C)CC[C@H]4[C@H](C)CC[C@@H]1[C@@]24OO3 | 100% | 100% | 100% | Active | – | 2.99 | 100% | – | Active | – | – | – | – | – |
| C[C@H]1[C@@H](OCCCCCCCCCOC(=O)CCC(=O)O)O[C@@H]2O[C@@]3(C)CC[C@H]4[C@H](C)CC[C@@H]1[C@@]24OO3 (mixture of isomers) | 100% | 93.09% | 67.27% | inactive | inactive | 5.53 | – | – | Active | – | – | – | – | – |
| C[C@H]1[C@@H](OCCCCO)O[C@@H]2OC3(C)CC[C@H]4[C@H](C)CC[C@@H]1[C@@]24OO3 | 100% | 100% | 100% | Active | Active | 3.55 | 100% | 98.3% | Active | – | – | – | – | – |
| C[C@H]1[C@@H](OCCCCOC(=O)CCC(=O)O)O[C@@H]2O[C@@]3(C)CC[C@H]4[C@H](C)CC[C@@H]1[C@@]24OO3 | 100% | – | – | – | – | 3.45 | – | – | – | – | – | – | – | – |
| C[C@H]1[C@@H](OCCCCCCCCCCCCO)O[C@@H]2O[C@@]3(C)CC[C@H]4[C@H](C)CC[C@@H]1[C@@]24OO3 | 100% | 100% | – | inactive | – | 6.89 | – | – | – | – | – | – | – | – |
| C[C@H]1[C@@H](OCCCCCCCCO)O[C@@H]2O[C@@]3(C)CC[C@H]4[C@H](C)CC[C@@H]1[C@@]24OO3 | 100% | 100% | 100% | Active | Active | 5.22 | 100% | – | Active | – | – | – | – | – |
